Source: patent US20030087430A1 (priority 2001, published 2003)

Assays:
[1] = system: Salmonella; test: Intracellular growth of Salmonella in RAW 264.7 macrophages (colony forming units); type: cell-based, S. typhimurium
Experimental: RAW 264.7 macrophages were plated in triplicate at a density of 5×10^5 cells/well, and incubated for 6 hours prior to infection with various treatments (DMEM-FBS, DMEM-LPDS, DMEM-D-FBS+30 uM Mevinolin, or DMEM-FBS+30 uM Mevinolin, or DMEM-FBS+30 uM Mevinolin+150 uM mevalonate). Cells were infected at a multiplicity of infection of 10 bacteria per cell for 15 minutes at 37° C. After infection, monolayers were incubated in media containing 100 ug/ml gentamicin to kill extracellular bacteria and then maintained in media containing 10 ug/ml for the remainder of the experiment. At 20 hours post infection, the cells were washed three times in PBS, lysed in 1% Triton X-100 and then plated to determine colony forming units.
RAW 264.7 macrophages were plated in triplicate at a density of 4×10^5 cells/well, and infected with bacteria at a multiplicity of infection of 10 bacteria per cell for 15 minutes at 37° C.
After infection, the 12 ug/ml of 4,4,10-β trimethyl-trans-decal-3β-ol (TMD) inhibitor was added to the media which also contained 100 ug/ml gentamicin. At 2 hours post infection, the gentamicin concentration was lowered to 10 ug/ml and maintained for the remainder of the experiment. At 20 hours post infection, cells were lysed with 1% Triton X-100 and bacteria were plated for colony forming units.
Macrophages were treated with 50 nM mevinolin for 3 days prior to infection. Cells were infected as described above, lysed with Triton X-100 at 2 and 20 hours post infection, and then plated to determine colony forming units.

[2] = system: conversion of squalene oxide to lanosterol; test: Cholesterol synthesis in TMD-treated macrophages; type: cell-based; settings: 12 ug/ml TMD, RAW 264.7 macrophages
[3] = system: Salmonella; test: Extracellular growth of Salmonella in Luria broth (optical density); type: cell-based; settings: LB containing 30 uM mevinolin, 37° C., optical density at 23 hours and growth curve
Experimental: Triplicate cultures of Salmonella were grown in a shaking incubator at 37° C. in plain LB, or LB containing 30 uM Mevinolin, and optical density was recorded at 23 hours after inoculation (results shown in FIG. 4A). Triplicate cultures of Salmonella were grown in a shaking incubator at 37° C. in plain LB or in LB containing 30 uM Mevinolin and optical density measurements were used to construct a growth curve (results shown in FIG. 4B).

[4] = system: RAW 264.7 macrophages; test: Host cell viability (Alamar Blue reduction); type: cell-based; settings: 10 nM to 100 uM mevinolin with or without mevalonate, 24 hours, Alamar Blue 3 hours
Experimental: RAW 264.7 macrophages were plated at a density of 1×10^5 cells/well and each sample represents the mean of six wells. Cells were treated with concentrations of mevinolin at 10 nM (1), 100 nM (2), 500 nM (3), 1 uM (4), 10 uM (5), 50 uM (6), 100 uM (7), 50 uM mevinolin+50 uM mevalonate (8), 50 uM mevinolin+150 uM mevalonate (9), 100 uM mevinolin+50 uM mevalonate (10), and 100 uM mevinolin+150 uM mevalonate (11), for 24 hours at 37° C. and then incubated with Alamar Blue for 3 hours.

[5] = system: Legionella; type: cell-based
[6] = system: RAW264.7 macrophages infected with S. typhimurium (SL1344); test: TUNEL staining of Salmonella-infected macrophages (apoptosis); type: cell-based; settings: 30 μM mevinolin from 4 hours prior to infection, 13 hours post infection
Experimental: RAW264.7 macrophages were treated with 30 uM mevinolin starting at 4 hours prior to infection. Infections were done with S. typhimurium (SL1344) at a moi of 10 bacteria per cell. At 13 hours post infection, cells were fixed and processed for TUNEL staining. At least 100 infected and 100 uninfected cells were counted in each monolayer and scored for TUNEL staining. Uninfected cells (black) and infected cells (gray) are shown. Averages of duplicate samples are shown.

CC1(C)[C@@H](O)CC[C@]2(C)CCCC[C@@H]12 (relative stereo) [TMD, 4,4,10-β trimethyl-trans-decal-3β-ol]
intracellular survival of Salmonella ([1]; 12 ug/ml TMD added after infection, RAW 264.7 macrophages, CFU at 20 hours post infection): did not lead to a decrease in intracellular survival of Salmonella
cholesterol synthesis of treated cells [2]: accumulated intermediate precursors and made very little cholesterol

CC[C@H](C)C(=O)O[C@H]1C[C@@H](C)C=C2C=C[C@H](C)[C@H](CC[C@@H]3C[C@@H](O)CC(=O)O3)[C@H]21 [mevinolin]
intracellular growth of Salmonella at physiologically relevant concentration ([1]; 50 nM mevinolin for 3 days prior to infection, CFU at 2 and 20 hours post infection): inhibit the intracellular growth of Salmonella
reversal of the defect in Salmonella intracellular growth by mevalonate ([1]; 30 uM mevinolin + 150 uM mevalonate, RAW 264.7 macrophages): can be reversed by the addition of mevalonate
Salmonella's intracellular survival ([1]; RAW 264.7 macrophages, 30 uM mevinolin from 6 hours prior to infection, CFU at 20 hours post infection): decreased Salmonella's intracellular survival by a factor of ten
bacterial growth in liquid culture (extracellular growth of Salmonella) [3]: does not affect bacterial growth in liquid culture
host cell viability [4]: host cell viability is not affected
intracellular growth of Legionella in human macrophages [5]: inhibited intracellular growth of Legionella in human macrophages
reversal of the defect in Legionella intracellular growth by mevalonate [5]: could be reversed by the addition of mevalonate
apoptosis in Salmonella-infected macrophages (TUNEL staining) [6]: induces apoptosis in Salmonella-infected macrophages
